Results: patent US20250090563A1, “COMPOSITION FOR PREVENTION, AMELIORATION OR TREATMENT OF INFLAMMATORY BOWEL DISEASE COMPRISING GALACTO-OLIGOSACCHARIDE” (NEO CREMAR CO., LTD., priority 2022, published 2025)

Assays:
myeloperoxidase (MPO) = experiment: MPO level in colon tissue of DSS-induced colitis mice; type: in vivo, BALB/c mice; conditions: 100 mg/kg for 28 days (positive control)
Description: (§1) Mice were divided into seven groups of seven mice each. 1) A normal control group received purified water orally for 28 days. 2) A colitis group received purified water for 28 days and 5% DSS solution freely from days 21 to 28 to induce colitis. The galacto-oligosaccharide of the present disclosure was administered at a dose of 3) 400 mg/kg and 4) 800 mg/kg to two groups of colitis-induced mice, respectively, for 28 days. In addition, to colitis-induced mice, the galacto-oligosaccharides from 5) company A and 6) company B were each administered at a dose of 800 mg/kg for 28 days while 7) the positive control group was administered 100 mg/kg of the anti-inflammatory agent 5-ASA (5-aminosalicylic acid) for 28 days. On the 29th day, each mouse was sacrificed, and the length of the colon and small intestine and the weight of the spleen were measured and evaluated. After measurement, the colon tissue was cut into 1 cm lengths, and the cecum was excised and placed into separate Ep. tubes for storage in a deep freezer for future experiments. […]
(§2) First, colon tissue samples were suspended in PBS containing a protease inhibitor (Roche Diagnostics Corp., Indianapolis, IN, USA) and homogenized uniformly using a TaKaRa BioMasher (Takara Bio Inc., Shiga, Japan). […] Protein concentration was quantified using a bicinchoninic acid kit (Thermo Scientific, Waltham, MA, USA).

IL-6 = IL-6 level in colon tissue of DSS-induced colitis mice; type: in vivo, BALB/c mice
Description: as §1, §2

[1] = tested on: mice with DSS-induced colitis; experiment: Colon length in DSS-induced acute colitis model; type: in vivo, BALB/c mice
Description: as §1, with “For use in this experiment, female BALB/c mice (7 weeks old) were purchased from Saeronbio Inc. (Gyeonggi-do, Korea) and acclimatized for 7 days under SPF conditions at Kyonggi University (temperature 23±2° C., humidity 50±5%, 12-hour light/dark cycle). All experiments adhered to the guidelines of the university's Animal Ethics Committee. An acute colitis model was induced using dextran sodium sulfate (DSS). Mice” for “Mice”, “The galacto-oligosaccharide of the present disclosure was administered at a dose of 3) 400 mg/kg and 4) 800 mg/kg to two groups of colitis-induced mice, respectively, for 28 days.” left out, “experiments. Portions of the remaining colon tissue were fixed in a 4% formalin solution.” for “experiments.”

[2] = tested on: mucin and goblet cells in the colon; experiment: Histological analysis of colon (Alcian blue-PAS staining) in DSS-induced colitis mice; type: in vivo, BALB/c mice; conditions: colon sections, FIG. 9; dose not stated
[3] = tested on: intestinal short chain fatty acids; experiment: Short chain fatty acid (SCFA) production in cecum of DSS-induced mice (GC); type: in vivo
Description: To determine the effect of administering the galacto-oligosaccharide of the present disclosure on the intestinal short chain fatty acids in DSS-induced mice, 5-ASA and the GOS of the present disclosure were administered at low (7 mg/mouse), medium (14 mg/mouse), and high (21 mg/mouse) concentrations to DSS-induced mice according to the schedule described in Example 3-1. Afterward, the cecums of the mice were collected, homogenized with a homogenizer, and suspended in 80% methanol. The samples were then centrifuged at 13,000 rpm for 10 minutes, diluted to a final concentration of 1 g/mL, and filtered through a 0.45 μm syringe filter. Quantitative analysis of SCFAs was performed by preparing each STD at different concentrations and using 2-ethylbutyric acid as the internal standard (ISTD). The standard curves were calculated based on the peak area ratios. In brief, the SCFA content was measured using gas chromatography (GC) equipped with a DB-FFAP capillary column to determine the production capacity of six SCFAs (acetic acid, propionic acid, butyric acid, valeric acid, caproic acid, and heptanoic acid). The GC analysis conditions were as follows: 100° C. (0.5 min), 100° C.→180° C. (8° C./min), 180° C. (1.0 min), 180° C.→200° C. (20° C./min), 200° C. (5.0 min).

[4] = tested on: mice with DSS-induced colitis; experiment: Disease activity index (DAI) in DSS-induced acute colitis model; type: in vivo, BALB/c mice
Description: For use in this experiment, female BALB/c mice (7 weeks old) were purchased from Saeronbio Inc. (Gyeonggi-do, Korea) and acclimatized for 7 days under SPF conditions at Kyonggi University (temperature 23±2° C., humidity 50±5%, 12-hour light/dark cycle). All experiments adhered to the guidelines of the university's Animal Ethics Committee. An acute colitis model was induced using dextran sodium sulfate (DSS). Mice were divided into seven groups of seven mice each. 1) A normal control group received purified water orally for 28 days. 2) A colitis group received purified water for 28 days and 5% DSS solution freely from days 21 to 28 to induce colitis. […] On the 29th day, each mouse was sacrificed, and the length of the colon and small intestine and the weight of the spleen were measured and evaluated. […] During the DSS treatment, colitis severity was determined using the disease activity index (DAI), which measures weight loss, stool consistency, rectal bleeding, and perianal blood presence according to the criteria in Table 3. After monitoring with the naked eye every two days for eight days, the scores were summed and calculated. […]

TNF-α = TNF-α level in colon tissue of DSS-induced colitis mice; type: in vivo, BALB/c mice
Description: as §1, §2

[5] = 100 mg/kg (positive control), DSS colitis mice
[6] = 100 mg/kg for 28 days (positive control), DSS colitis
[7] = 100 mg/kg for 28 days (positive control), 5% DSS days 21-28
[8] = PC, dose 100 mg/kg, DSS-induced mice

What does the source list for `Nc1ccc(O)c(C(=O)O)c1` [5-ASA, 5-aminosalicylic acid]?
MPO (myeloperoxidase (MPO)): 45 pg/mg; Level of IL-6 versus DSS group, in words (IL-6; [5]): greatly reduced; IL-6 (IL-6; [6]): 12 pg/mg; Inhibition of the reduction of colon length, in words [1, 5]: showed an efficacy in inhibiting the reduction of colon length; Colon length [1, 7]: 5.2 cm; Amount of mucin (Alcian blue-PAS) compared to the DSS-treated group [2]: the amount of mucin recovered; Goblet cells compared to the DSS-treated group [2]: goblet cells were observed; All SCFAs except acetic acid compared to the NC treated with 5% DSS alone, in words ([3]; PC group, cecum): slight increase; Acetic acid, share of total SCFA (value in parentheses) [3, 8]: 73.3; Acetic acid, short chain fatty acid production in cecum [3, 8]: 8917 µM; Butyric acid, share of total SCFA (value in parentheses) [3, 8]: 15.8; Butyric acid, short chain fatty acid production in cecum [3, 8]: 1923 µM; Propionic acid, share of total SCFA (value in parentheses) [3, 8]: 10.9; Propionic acid, short chain fatty acid production in cecum [3, 8]: 1321 µM; Total SCFA, share of total SCFA (value in parentheses) [3, 8]: 100; Total SCFA, short chain fatty acid production in cecum [3, 8]: 12161 µM; Colitis amelioration effect (DAI), in words [4, 5]: did not show any colitis amelioration effect; Disease Activity Index of 8 day (Score) [4, 7]: 10.3 Score; Level of TNF-α versus DSS group, in words (TNF-α; [5]): greatly reduced; TNF-α (TNF-α; [6]): 100 pg/mg
